According to PubChem BioAssay AID248 (DTP/NCI, 2004):
Values joined by “and” are separate entries in the source; they are usually repeats but may differ in a detail not shown here. Identical values can stand only once. Inconclusive results and toxic doses are left out.

Test system: L1210 leukemia ip in BDF1 mice, survival T/C
Assay: NCI In Vivo Anticancer Drug Screen. Data for tumor model L1210 Leukemia (intraperitoneal) in B6D2F1 (BDF1) mice
Conditions: endpoint: mean survival time, higher = longer survival
Summary of the method: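 Tumor was transplanted into mice, which were then dosed with test compound or vehicle alone. Survival was recorded for each group, and the treated figure was expressed relative to the control figure.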

[1] = dose: 100.0 mg/kg/injection, schedule: Q01DX009 (ip), vehicle: saline with Tween-80
[2] = dose: 200.0 mg/kg/injection, schedule: Q01DX009 (ip), vehicle: saline with Tween-80
[3] = dose: 100.0 mg/kg/injection, schedule: Q04DX002 (ip), vehicle: saline
[4] = dose: 200.0 mg/kg/injection, schedule: Q04DX002 (ip), vehicle: saline
[5] = dose: 100.0 mg/kg/injection, schedule: Q04DX003 (ip), vehicle: saline
[6] = dose: 200.0 mg/kg/injection, schedule: Q04DX003 (ip), vehicle: saline
[7] = dose: 400.0 mg/kg/injection, schedule: Q04DX003 (ip), vehicle: saline
[8] = dose: 100.0 mg/kg/injection, schedule: Q01DX009 (ip), vehicle: saline
[9] = dose: 200.0 mg/kg/injection, schedule: Q01DX009 (ip), vehicle: saline
[10] = dose: 400.0 mg/kg/injection, schedule: Q01DX009 (ip), vehicle: saline
[11] = dose: 100.0 mg/kg/injection, schedule: Q01DX009 (ip), vehicle: Klucel (hydroxypropylcellulose) (HPC)
[12] = dose: 200.0 mg/kg/injection, schedule: Q01DX009 (ip), vehicle: Klucel (hydroxypropylcellulose) (HPC)
[13] = dose: 400.0 mg/kg/injection, schedule: Q01DX009 (ip), vehicle: Klucel (hydroxypropylcellulose) (HPC)
[14] = dose: 100.0 mg/kg/injection, schedule: Q01DX001 (ip), vehicle: saline
[15] = dose: 200.0 mg/kg/injection, schedule: Q01DX001 (ip), vehicle: saline
[16] = dose: 400.0 mg/kg/injection, schedule: Q01DX001 (ip), vehicle: saline
[17] = dose: 50.0 mg/kg/injection, schedule: Q01DX009 (ip), vehicle: saline
[18] = dose: 400.0 mg/kg/injection, schedule: Q01DX009 (ip), vehicle: saline with Tween-80
[19] = dose: 50.0 mg/kg/injection, schedule: Q01DX009 (ip), vehicle: saline with Tween-80
[20] = dose: 100.0 mg/kg/injection, schedule: Q04DX003 (ip), vehicle: saline with Tween-80
[21] = dose: 200.0 mg/kg/injection, schedule: Q04DX003 (ip), vehicle: saline with Tween-80
[22] = dose: 400.0 mg/kg/injection, schedule: Q04DX003 (ip), vehicle: saline with Tween-80

## CCCCC#CC(=O)OCCCCC
[1]
  T/C: 105 % of control
[2]
  T/C: 91 % of control

## C(CCSC1=NCCN1)CSC1=NCCN1
[3]
  T/C: 105 % of control

## O=C(C1CC=CCC1)N1CCCCCC1 (stereo not drawn)
[3]
  T/C: 101 % of control
[4]
  T/C: 111 % of control
dose: 400.0 mg/kg/injection, schedule: Q04DX002 (ip), vehicle: saline
  T/C: 99 % of control

## c1ccc(CC(Cc2ccccc2)=[N+]2C3CCCC2CC3)cc1
[5]
  T/C: 92 % of control
[6]
  T/C: 101 % of control
[7]
  T/C: 111 % of control

## CCCN=Cc1ccccc1O.CCCN=Cc1ccccc1O.[Cu]
dose: 9.5 mg/kg/injection, schedule: Q01DX001 (ip), vehicle: other
  T/C: 94 % of control
dose: 19.0 mg/kg/injection, schedule: Q01DX001 (ip), vehicle: other
  T/C: 100 % of control
dose: 38.0 mg/kg/injection, schedule: Q01DX001 (ip), vehicle: other
  T/C: 97 % of control

## C#CCN(CC#C)C(C)=O
[3]
  T/C: 91 % of control
[4]
  T/C: 94 % of control

## CC(=O)[OH2+].CC(=O)[OH2+].[O-]c1ccc2ccccc2c1CN1CCCCC1.[O-]c1ccc2ccccc2c1CN1CCCCC1.[O]=[U+2]=[O].[O]=[U+2]=[O]
dose: 5.0 mg/kg/injection, schedule: Q01DX001 (ip), vehicle: other
  T/C: 105 % of control
dose: 10.0 mg/kg/injection, schedule: Q01DX001 (ip), vehicle: other
  T/C: 111 % of control

## Cc1ccc([N+](=O)[O-])cc1S(=O)(=O)O
[8]
  T/C: 95 % of control
[5]
  T/C: 102 % of control
[9]
  T/C: 102 % of control
[6]
  T/C: 102 % of control
[10]
  T/C: 98 % of control
[7]
  T/C: 96 % of control

## COC(=O)C1OC1C(=O)OC (stereo not drawn)
[11]
  T/C: 91 % of control
[8]
  T/C: 101 % of control
[12]
  T/C: 96 % of control
[9]
  T/C: 100 % of control
[13]
  T/C: 102 % of control
[10]
  T/C: 92 % of control

## O=c1[nH]c2cnn(-c3ccccc3)c2c(=O)n1O
dose: 50.0 mg/kg/injection, schedule: Q01DX001 (ip), vehicle: saline
  T/C: 97 % of control
[14]
  T/C: 97 % of control
[15]
  T/C: 97 % of control
[16]
  T/C: 105 % of control

## NCCNCCN1CC1
dose: 10.0 mg/kg/injection, schedule: Q04DX002 (ip), vehicle: saline
  T/C: 104 % of control
dose: 20.0 mg/kg/injection, schedule: Q04DX002 (ip), vehicle: saline
  T/C: 115 % of control
dose: 40.0 mg/kg/injection, schedule: Q04DX002 (ip), vehicle: saline
  T/C: 106 % of control

## COc1ccc(O)c(C2(O)OC(=O)c3c(OC)cccc32)c1 (stereo not drawn)
dose: 100.0 mg/kg/injection, schedule: Q01DX001 (ip), vehicle: carboxymethylcellulose (CMC)
  T/C: 103 % of control and 111 % of control
dose: 100.0 mg/kg/injection, schedule: Q01DX009 (ip), vehicle: carboxymethylcellulose (CMC)
  T/C: 100 % of control and 89 % of control
dose: 100.0 mg/kg/injection, schedule: Q04DX002 (ip), vehicle: carboxymethylcellulose (CMC)
  T/C: 102 % of control and 113 % of control
dose: 100.0 mg/kg/injection, schedule: Q04DX003 (ip), vehicle: carboxymethylcellulose (CMC)
  T/C: 95 % of control and 100 % of control
dose: 200.0 mg/kg/injection, schedule: Q01DX001 (ip), vehicle: carboxymethylcellulose (CMC)
  T/C: 94 % of control and 106 % of control
dose: 200.0 mg/kg/injection, schedule: Q01DX009 (ip), vehicle: carboxymethylcellulose (CMC)
  T/C: 104 % of control and 89 % of control
dose: 200.0 mg/kg/injection, schedule: Q04DX002 (ip), vehicle: carboxymethylcellulose (CMC)
  T/C: 97 % of control
dose: 200.0 mg/kg/injection, schedule: Q04DX003 (ip), vehicle: carboxymethylcellulose (CMC)
  T/C: 94 % of control and 100 % of control
dose: 400.0 mg/kg/injection, schedule: Q01DX001 (ip), vehicle: carboxymethylcellulose (CMC)
  T/C: 94 % of control and 103 % of control
dose: 400.0 mg/kg/injection, schedule: Q04DX002 (ip), vehicle: carboxymethylcellulose (CMC)
  T/C: 97 % of control and 98 % of control
dose: 400.0 mg/kg/injection, schedule: Q04DX003 (ip), vehicle: carboxymethylcellulose (CMC)
  T/C: 95 % of control and 90 % of control

## c1cc(OCCN2CC2)ccn1
dose: 12.5 mg/kg/injection, schedule: Q01DX001 (ip), vehicle: carboxymethylcellulose (CMC)
  T/C: 98 % of control
dose: 25.0 mg/kg/injection, schedule: Q01DX001 (ip), vehicle: carboxymethylcellulose (CMC)
  T/C: 108 % of control

## Nc1cc(I)c2cccnc2c1O
dose: 6.25 mg/kg/injection, schedule: Q01DX009 (ip), vehicle: saline
  T/C: 101 % of control
dose: 10.0 mg/kg/injection, schedule: Q01DX015 (ip), vehicle: saline
  T/C: 95 % of control
dose: 12.5 mg/kg/injection, schedule: Q01DX009 (ip), vehicle: saline
  T/C: 96 % of control
dose: 20.0 mg/kg/injection, schedule: Q01DX015 (ip), vehicle: saline
  T/C: 87 % of control
dose: 25.0 mg/kg/injection, schedule: Q01DX009 (ip), vehicle: saline
  T/C: 102 % of control
[17]
  T/C: 98 % of control

## CC(C)(C)C(CCC(=O)O)CC(=O)O (stereo not drawn)
[2]
  T/C: 90 % of control
[18]
  T/C: 89 % of control

## Cc1ccc(NS(=O)(=O)c2ccc(Br)cc2)c(C)c1
dose: 25.0 mg/kg/injection, schedule: Q01DX009 (ip), vehicle: saline with Tween-80
  T/C: 98 % of control
[19]
  T/C: 96 % of control
[1]
  T/C: 96 % of control
[20]
  T/C: 98 % of control
[2]
  T/C: 98 % of control
[21]
  T/C: 91 % of control
[18]
  T/C: 101 % of control
[22]
  T/C: 93 % of control

## O=C[C@@H](CO)O[C@H](C=O)c1c[nH]c(=O)[nH]c1=O
dose: 66.0 mg/kg/injection, schedule: Q03DX003 (ip), vehicle: saline
  T/C: 213 % of control
dose: 80.0 mg/kg/injection, schedule: Q04DX003 (ip), vehicle: saline
  T/C: 168 % of control
[5]
  T/C: 209 % of control
dose: 120.0 mg/kg/injection, schedule: Q04DX003 (ip), vehicle: saline
  T/C: 252 % of control
dose: 140.0 mg/kg/injection, schedule: Q04DX003 (ip), vehicle: saline
  T/C: 204 % of control
dose: 150.0 mg/kg/injection, schedule: Q03DX003 (ip), vehicle: saline
  T/C: 217 % of control

## NC(=O)OCCI
[17]
  T/C: 105 % of control
dose: 50.0 mg/kg/injection, schedule: Q04DX003 (ip), vehicle: other
  T/C: 101 % of control
dose: 100.0 mg/kg/injection, schedule: Q04DX003 (ip), vehicle: other
  T/C: 121 % of control
dose: 200.0 mg/kg/injection, schedule: Q04DX003 (ip), vehicle: other
  T/C: 119 % of control

## COc1cc([N+](=O)[O-])ccc1NC(=O)Nc1c(C)n(C)n(-c2ccccc2)c1=O
[11]
  T/C: 97 % of control
[12]
  T/C: 93 % of control
[13]
  T/C: 93 % of control

## Brc1ccc(SCN(CSc2ccc(Br)cc2)Cc2ccccc2)cc1
[14]
  T/C: 93 % of control
[15]
  T/C: 87 % of control
[16]
  T/C: 93 % of control

## CCCCCCCCCOC(=O)NC1c2ccccc2Oc2ccccc21
dose: 100.0 mg/kg/injection, schedule: Q01DX009 (ip), vehicle: acetone
  T/C: 93 % of control
[5]
  T/C: 98 % of control
[6]
  T/C: 98 % of control
[7]
  T/C: 88 % of control

## COc1cccc(NC(=O)NC(C)(C)C)c1
[19]
  T/C: 95 % of control and 119 % of control
dose: 100.0 mg/kg/injection, schedule: Q01DX001 (ip), vehicle: saline with Tween-80
  T/C: 106 % of control
dose: 100.0 mg/kg/injection, schedule: Q04DX002 (ip), vehicle: saline with Tween-80
  T/C: 97 % of control and 103 % of control
[20]
  T/C: 105 % of control
dose: 200.0 mg/kg/injection, schedule: Q01DX001 (ip), vehicle: saline with Tween-80
  T/C: 100 % of control
dose: 200.0 mg/kg/injection, schedule: Q04DX002 (ip), vehicle: saline with Tween-80
  T/C: 94 % of control and 100 % of control
[21]
  T/C: 104 % of control
dose: 400.0 mg/kg/injection, schedule: Q01DX001 (ip), vehicle: saline with Tween-80
  T/C: 111 % of control
[18]
  T/C: 103 % of control and 108 % of control
dose: 400.0 mg/kg/injection, schedule: Q04DX002 (ip), vehicle: saline with Tween-80
  T/C: 97 % of control and 86 % of control
[22]
  T/C: 96 % of control

## CN1CCCCCC1=O
[5]
  T/C: 100 % of control
[6]
  T/C: 111 % of control
[7]
  T/C: 101 % of control
